Drawing on US7105554B2, “Benzylidene thiazolidinediones and their use as antimycotic agents” (priority 2000, dated 2006), this text covers melting point and IC50 for 5 compounds.

The target in data set [1] is T1, Candida albicans PMT-1 enzyme (Candida albicans, UniProt O74189).
T1 construct: 25 μg of Candida albicans membrane protein; endogenous in cells
The data set is described as follows: PMT-1 Assay. The data set is classed as biochemical. The note with it: transfer of [3H]-mannose from dolicholphosphomannose to peptide DYATAV, Candida albicans membrane protein, 60 minutes at 25° C., pH 8.0; read-out: PMT-1 Inhibition (IC50, microM). The method, then: The assay method is based upon the transfer of a radiolabelled mannose moiety from dolicholphosphomannose onto a threonine hydroxyl residue in a short peptide, as catalysed by the Candida albicans PMT-1 enzyme. Dolicholphospho-[^3H]-mannose is synthesised enzymatically from GDP-[^3H]-mannose and purified by chloroform:methanol extraction.
100000 Dpm of the generated substrate is incubated with 400 μg phosphatidylcholine, 25 μg of peptide (DYATAV) and 25 μg of Candida albicans membrane protein in a final volume of 50 μl in 100 mM Tris/1 mM MgCl2 buffer, pH 8.0. After 60 minutes at 25° C., the reaction is stopped with 50 μl of methanol. The unreacted radiolabel is removed by the addition of 150 μl of 0.4 g/ml octadecyl-functionalised silica (C18) in methanol. The C18 material is removed by centrifugation and the activity transferred to the peptide is counted in the supernatant.

For data set [2], the system named is Candida albicans (strain SC5314). The data set is described as follows: G418 Sensitivity Assay. The data set is classed as cell-based. Particulars: concentration giving 50% reduction in cell growth relative to culture with G418 alone, strain SC5314, overnight at 37° C., OD600 nm, 1% DMSO. The method, then:
This assay is based upon the observed increased sensitivity of the pmt1−/− Candida strain to Geneticin (G418) (6). 100 μl of a 0.1 OD600 nm culture of Candida albicans (strain SC5314) is placed into a 96 well plate in the presence or absence of varying concentrations of test compound. The compounds are initially dissolved in DMSO and added to the cultures at a final DMSO concentration of 1%. G418 is added to a final concentration of 100 [2 g/ml. In the absence of PMT1 inhibition, this concentration of G418 has no effect on the proliferation of the organism. The cultures are grown overnight at 37° C. and cell density is then estimated by an OD600 nm measurement. The effect of the test compound is calculated as the concentration that gives a 50% reduction in cell growth relative to the culture with G418 alone.

SMILES strings stand for the structures.

T1 sequence (O74189 whole entry): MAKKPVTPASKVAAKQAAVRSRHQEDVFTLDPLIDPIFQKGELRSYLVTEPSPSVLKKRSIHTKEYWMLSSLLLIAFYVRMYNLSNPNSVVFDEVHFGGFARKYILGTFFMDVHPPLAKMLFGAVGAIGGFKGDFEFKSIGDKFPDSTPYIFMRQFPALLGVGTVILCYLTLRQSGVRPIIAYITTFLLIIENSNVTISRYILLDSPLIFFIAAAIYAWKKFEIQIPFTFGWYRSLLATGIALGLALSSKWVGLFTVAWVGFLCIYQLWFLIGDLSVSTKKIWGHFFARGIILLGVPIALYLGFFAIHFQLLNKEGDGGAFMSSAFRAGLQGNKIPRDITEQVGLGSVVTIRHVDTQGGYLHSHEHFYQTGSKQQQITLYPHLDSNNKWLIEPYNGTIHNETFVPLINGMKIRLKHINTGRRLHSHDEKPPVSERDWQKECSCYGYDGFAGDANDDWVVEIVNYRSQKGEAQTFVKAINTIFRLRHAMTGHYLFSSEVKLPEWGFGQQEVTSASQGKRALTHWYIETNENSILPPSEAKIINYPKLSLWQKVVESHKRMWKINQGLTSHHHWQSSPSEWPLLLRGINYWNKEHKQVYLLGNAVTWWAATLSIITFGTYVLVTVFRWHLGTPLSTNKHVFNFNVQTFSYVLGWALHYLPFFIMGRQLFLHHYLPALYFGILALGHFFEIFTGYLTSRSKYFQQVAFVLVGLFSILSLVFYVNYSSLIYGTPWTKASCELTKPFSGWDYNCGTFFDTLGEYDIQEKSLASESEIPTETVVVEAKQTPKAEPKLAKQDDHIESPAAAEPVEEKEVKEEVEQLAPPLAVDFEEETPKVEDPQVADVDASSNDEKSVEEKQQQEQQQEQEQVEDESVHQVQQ
T1 sequence (Q5ADM9 whole entry, further chain): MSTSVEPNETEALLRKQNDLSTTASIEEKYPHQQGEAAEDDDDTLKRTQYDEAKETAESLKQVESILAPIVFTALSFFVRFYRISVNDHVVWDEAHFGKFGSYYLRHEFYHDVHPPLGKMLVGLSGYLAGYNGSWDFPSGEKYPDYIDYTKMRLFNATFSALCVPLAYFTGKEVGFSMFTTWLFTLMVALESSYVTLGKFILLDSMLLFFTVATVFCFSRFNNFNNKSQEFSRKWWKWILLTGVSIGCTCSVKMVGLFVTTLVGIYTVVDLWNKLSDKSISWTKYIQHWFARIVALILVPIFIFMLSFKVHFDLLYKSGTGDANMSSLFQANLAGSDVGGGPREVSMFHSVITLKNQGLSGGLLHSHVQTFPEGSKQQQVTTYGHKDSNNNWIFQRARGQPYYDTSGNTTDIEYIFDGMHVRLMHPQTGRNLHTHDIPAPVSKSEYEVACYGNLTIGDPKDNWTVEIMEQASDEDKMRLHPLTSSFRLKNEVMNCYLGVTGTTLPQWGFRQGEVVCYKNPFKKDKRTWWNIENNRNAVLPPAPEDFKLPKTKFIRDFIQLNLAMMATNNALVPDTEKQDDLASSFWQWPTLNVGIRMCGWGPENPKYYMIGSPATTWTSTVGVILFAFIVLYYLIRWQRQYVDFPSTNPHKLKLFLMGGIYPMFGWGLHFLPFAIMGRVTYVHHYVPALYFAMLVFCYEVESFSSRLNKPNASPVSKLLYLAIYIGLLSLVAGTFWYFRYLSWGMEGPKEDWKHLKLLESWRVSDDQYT

Consider `O=C(O)CN1C(=O)/C(=C/c2ccc(OCc3ccccc3)c(OCc3ccccc3)c2)SC1=S` [Example 29, 5-[[3,4-bis(phenylmethoxy)phenyl]methylene]-4-oxo-2-thioxo-3-thiazolidineacetic acid], for which the melting point (commonly the temperature of the solid-liquid transition) is 235 to 238 °C.

With `O=C(O)CN1C(=O)/C(=C/c2ccc(OCc3cccc(C(F)(F)F)c3)c(OCc3ccccc3)c2)SC1=S` [Example 39, 5-[[3-(Phenylmethoxy)-4-[(3-trifluoromethylphenyl)methoxy]phenyl]-methylene]-4-oxo-2-thioxo-3-thiazolidineacetic acid], the IC50 – broadly, the concentration at which inhibition is half-maximal – came out at 2 µM in data set [1] and 650 nM in data set [2].

`O=C(O)CN1C(=O)/C(=C/c2ccc(OCc3ccc(OC(F)(F)F)cc3)c(OCc3ccccc3)c2)SC1=S` [Example 42, 5-[[3-(Phenylmethoxy)-4-[(4-trifluoromethoxyphenyl)methoxy]-phenyl]-methylene]-4-oxo-2-thioxo-3-thiazolidineacetic acid]: the IC50 stood at 1 µM in data set [1] and 350 nM in data set [2].

In the case of `O=C(O)CN1C(=O)/C(=C/c2ccc(OCc3ccc(Cl)cc3)c(OCc3ccccc3)c2)SC1=S` [Example 44, 5-[[4-[(4-Chlorophenyl)methoxy] 3-(phenylmethoxy)phenyl]-methylene]-4-oxo-2-thioxo-3-thiazolidineacetic acid], the IC50 came to 1 µM in data set [1] and 600 nM in data set [2].

Take `C[C@H](COc1ccc(/C=C2\SC(=S)N(CC(=O)O)C2=O)cc1O[C@@H](c1ccccc1)C(F)(F)F)c1ccccc1` [Example 60, 5-[[3-[(S)-1-Phenyl-2,2,2-trifluoroethoxy]-4-[(S)-2-phenylpropoxy]-phenyl]methylene]-4-oxo-2-thioxo-3-thiazolidineacetic acid]: the melting point is 73 to 80 °C.
